Source: ChEMBL document CHEMBL1201862, “PubChem BioAssay data set” (2004)
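Dose response: 5 concentrations. Exposure: 48 h. Format: 96-well plates. Endpoint: linear interpolation; highest concentration if not reached. GI50 is the concentration that inhibits growth by half.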 The source made the active and inactive calls. No stated cut-off is given here; in the data, active = GI50 up to about 1.1 µM and inactive = higher.

How the values were obtained:
Experiment in all cases: DTP human tumour cell line panel, 48 h
786-0 = tested on: 786-0
CCRF-CEM = tested on: CCRF-CEM
COLO 205 = tested on: COLO 205
EKVX = tested on: EKVX
HCC 2998 = tested on: HCC 2998
HCT-116 = tested on: HCT-116
HCT-15 = tested on: HCT-15
MDA-MB-231 = tested on: MDA-MB-231
MDA-MB-435 = tested on: MDA-MB-435
MDA-N = tested on: MDA-N
NCI-H460 = tested on: NCI-H460
NCI/ADR-RES = tested on: NCI/ADR-RES
OVCAR-3 = tested on: OVCAR-3
OVCAR-8 = tested on: OVCAR-8
SF-539 = tested on: SF-539
SK-MEL-5 = tested on: SK-MEL-5
SN12C = tested on: SN12C
UACC-257 = tested on: UACC-257
UO-31 = tested on: UO-31
HOP-62 = tested on: HOP-62

Compound	GI50 (786-0)	GI50 (CCRF-CEM)	GI50 (COLO 205)	GI50 (EKVX)	GI50 (HCC 2998)	GI50 (HCT-116)	GI50 (HCT-15)	GI50 (MDA-MB-231)	GI50 (MDA-MB-435)	GI50 (MDA-N)	GI50 (NCI-H460)	GI50 (NCI/ADR-RES)	GI50 (OVCAR-3)	GI50 (OVCAR-8)	GI50 (SF-539)	GI50 (SK-MEL-5)	GI50 (SN12C)	GI50 (UACC-257)	GI50 (UO-31)	GI50 (HOP-62)
CN[C@H]1CC[C@]23C[C@]24CC[C@]2(C)[C@@H]([C@H](C)N(C)C)CC[C@@]2(C)[C@@H]4CC[C@H]3C1(C)C	6.78 µM (inactive)	15.1 µM (inactive)	12.1 µM (inactive)	18.2 µM (inactive)	13.4 µM (inactive)	11.4 µM (inactive)	10.7 µM	21.1 µM (inactive)	14.1 µM (inactive)	13.9 µM (inactive)	18.2 µM (inactive)	18.5 µM (inactive)	14.3 µM (inactive)	17.3 µM (inactive)	11.2 µM (inactive)	15.1 µM (inactive)	14.3 µM (inactive)	15.1 µM (inactive)	11.9 µM (inactive)	–
COC(=O)c1cc(=O)n(-c2ccc3nn(C)nc3c2)cc1C(=O)OC	> 100 µM (inactive)	> 100 µM (inactive)	> 100 µM (inactive)	> 100 µM (inactive)	> 100 µM (inactive)	> 100 µM (inactive)	> 100 µM	> 100 µM (inactive)	> 100 µM (inactive)	> 100 µM (inactive)	> 100 µM (inactive)	> 100 µM (inactive)	> 100 µM (inactive)	> 100 µM (inactive)	> 100 µM (inactive)	> 100 µM (inactive)	> 100 µM (inactive)	> 100 µM (inactive)	> 100 µM (inactive)	> 100 µM (inactive)
COC(=O)c1ccc2[nH]c3c(c2c1)CC(=O)Nc1ccccc1-3	> 100 µM (inactive)	–	> 100 µM (inactive)	26.2 µM (inactive)	> 100 µM (inactive)	> 100 µM (inactive)	> 100 µM	12.4 µM (inactive)	> 100 µM (inactive)	> 100 µM (inactive)	> 100 µM (inactive)	> 100 µM (inactive)	> 100 µM (inactive)	5.9 µM (inactive)	2.94 µM (inactive)	> 100 µM (inactive)	> 100 µM (inactive)	> 100 µM (inactive)	0.0278 µM (active)	24.3 µM (inactive)
C=C([C@@]1(O)C[C@H]2[C@H](CCC2(OC)OC)[C@@H]2c3ccccc3O[C@@H]21)[Si](C)(C)C	> 100 µM (inactive)	–	> 100 µM (inactive)	> 100 µM (inactive)	> 100 µM (inactive)	> 100 µM (inactive)	> 100 µM	> 100 µM (inactive)	> 100 µM (inactive)	> 100 µM (inactive)	> 100 µM (inactive)	> 100 µM (inactive)	> 100 µM (inactive)	> 100 µM (inactive)	> 100 µM (inactive)	> 100 µM (inactive)	> 100 µM (inactive)	> 100 µM (inactive)	76.7 µM (inactive)	> 100 µM (inactive)
Cc1cn(C2CC(N=[N+]=[N-])C(CO)O2)c(=O)n(CCCCBr)c1=O (stereo unspecified)	> 100 µM (inactive)	< 0.01 µM (active)	> 100 µM (inactive)	> 100 µM (inactive)	65.5 µM (inactive)	> 100 µM (inactive)	> 100 µM	35.6 µM (inactive)	80.4 µM (inactive)	> 100 µM (inactive)	> 100 µM (inactive)	63.8 µM (inactive)	40.9 µM (inactive)	> 100 µM (inactive)	> 100 µM (inactive)	–	59.3 µM (inactive)	> 100 µM (inactive)	> 100 µM (inactive)	> 100 µM (inactive)
CSCCC(NC(=O)C(Cc1c[nH]c2ccccc12)NC(=O)CCNC(=O)OC(C)(C)C)C(=O)NC(CC(=O)O)C(=O)NC(Cc1ccccc1)C(N)=O (stereo unspecified)	> 50 µM (inactive)	> 50 µM (inactive)	> 50 µM (inactive)	> 50 µM (inactive)	> 50 µM (inactive)	> 50 µM (inactive)	–	> 50 µM (inactive)	> 50 µM (inactive)	> 50 µM (inactive)	–	> 50 µM (inactive)	> 50 µM (inactive)	–	> 50 µM (inactive)	> 50 µM (inactive)	> 50 µM (inactive)	> 50 µM (inactive)	–	> 50 µM (inactive)
Cc1nc(Nc2ccccc2Cl)sc1C(=O)CC(=O)C(N)=O	58.9 µM (inactive)	32.6 µM (inactive)	21.2 µM (inactive)	18.2 µM (inactive)	51.4 µM (inactive)	10.9 µM (inactive)	33.7 µM	57.4 µM (inactive)	16 µM (inactive)	19.4 µM (inactive)	32.6 µM (inactive)	31.3 µM (inactive)	> 100 µM (inactive)	54.7 µM (inactive)	76.4 µM (inactive)	–	37.8 µM (inactive)	> 100 µM (inactive)	21.7 µM (inactive)	> 100 µM (inactive)
CC(C)c1cccc(C(=O)NCCN(C)C)c1[N+](=O)[O-]	> 100 µM (inactive)	> 100 µM (inactive)	> 100 µM (inactive)	–	> 100 µM (inactive)	> 100 µM (inactive)	> 100 µM	> 100 µM (inactive)	> 100 µM (inactive)	> 100 µM (inactive)	> 100 µM (inactive)	> 100 µM (inactive)	> 100 µM (inactive)	> 100 µM (inactive)	> 100 µM (inactive)	> 100 µM (inactive)	> 100 µM (inactive)	> 100 µM (inactive)	> 100 µM (inactive)	> 100 µM (inactive)
CC1(C)Oc2ccc3c(=O)cc(-c4cccs4)oc3c2C1C(=O)O (stereo unspecified)	> 100 µM (inactive)	> 100 µM (inactive)	> 100 µM (inactive)	> 100 µM (inactive)	> 100 µM (inactive)	> 100 µM (inactive)	–	> 100 µM (inactive)	> 100 µM (inactive)	> 100 µM (inactive)	–	> 100 µM (inactive)	> 100 µM (inactive)	> 100 µM (inactive)	> 100 µM (inactive)	> 100 µM (inactive)	> 100 µM (inactive)	> 100 µM (inactive)	–	> 100 µM (inactive)
O=C1/C(=C/c2cccc(Cl)c2)CCCc2ccccc21	17.8 µM (inactive)	10.2 µM (inactive)	20.5 µM (inactive)	16.7 µM (inactive)	17.2 µM (inactive)	12.9 µM (inactive)	17.2 µM	18.2 µM (inactive)	16.2 µM (inactive)	16.9 µM (inactive)	15.7 µM (inactive)	18.4 µM (inactive)	23.7 µM (inactive)	18.3 µM (inactive)	17.9 µM (inactive)	–	18.2 µM (inactive)	19.1 µM (inactive)	16.1 µM (inactive)	21.6 µM (inactive)
CC(C)=CC[C@]12CCN(C)[C@H]1N(S(=O)(=O)c1ccccc1)c1ccccc12	42.3 µM (inactive)	> 50.7 µM (inactive)	–	> 24.2 µM (inactive)	> 40.1 µM (inactive)	> 44.6 µM (inactive)	> 47.2 µM	> 52.4 µM (inactive)	> 44.7 µM (inactive)	48.2 µM (inactive)	> 40.4 µM (inactive)	> 82.8 µM (inactive)	> 41 µM (inactive)	> 64 µM (inactive)	58.9 µM (inactive)	11.9 µM (inactive)	> 62.2 µM (inactive)	> 39.5 µM (inactive)	> 22.5 µM (inactive)	> 45.4 µM (inactive)
CCC1=C(CC2NCCc3ccccc32)CC2c3cc(OC)c(OC)cc3CCN2C1 (stereo unspecified)	0.338 µM (active)	0.357 µM (active)	–	0.305 µM (active)	0.432 µM (active)	0.307 µM (active)	0.552 µM	0.358 µM (active)	0.327 µM (active)	0.452 µM (active)	0.3 µM (active)	1.3 µM (inactive)	0.841 µM (active)	0.445 µM (active)	0.578 µM (active)	0.585 µM (active)	0.5 µM (active)	1.02 µM (active)	0.736 µM (active)	0.627 µM (active)
O=Cc1c(-c2ccccc2)nc2ccccc2c1O	49.2 µM (inactive)	–	26.7 µM (inactive)	85.1 µM (inactive)	58.5 µM (inactive)	41.9 µM (inactive)	65.2 µM	64.6 µM (inactive)	21.3 µM (inactive)	15.6 µM (inactive)	48.2 µM (inactive)	52.1 µM (inactive)	49.8 µM (inactive)	97.5 µM (inactive)	45.6 µM (inactive)	17.9 µM (inactive)	73.8 µM (inactive)	72.8 µM (inactive)	85.7 µM (inactive)	92.7 µM (inactive)
O=C1CCc2cc([N+](=O)[O-])ccc2O1	> 100 µM (inactive)	> 100 µM (inactive)	> 100 µM (inactive)	> 100 µM (inactive)	> 100 µM (inactive)	> 100 µM (inactive)	> 100 µM	> 100 µM (inactive)	> 100 µM (inactive)	> 100 µM (inactive)	> 100 µM (inactive)	> 100 µM (inactive)	> 100 µM (inactive)	> 100 µM (inactive)	> 100 µM (inactive)	> 100 µM (inactive)	> 100 µM (inactive)	> 100 µM (inactive)	–	> 100 µM (inactive)
C#C[C@]1(O)CC[C@H]2[C@@H]3CCc4cc(OC(=O)c5cccc6cc7ccccc7nc56)ccc4[C@H]3CC[C@@]21C	27.5 µM (inactive)	12.8 µM (inactive)	11 µM (inactive)	12.9 µM (inactive)	29.4 µM (inactive)	24.3 µM (inactive)	26.1 µM	25.6 µM (inactive)	31.2 µM (inactive)	25.5 µM (inactive)	23 µM (inactive)	28.8 µM (inactive)	21.4 µM (inactive)	40.8 µM (inactive)	31.6 µM (inactive)	13.6 µM (inactive)	20.9 µM (inactive)	63.4 µM (inactive)	–	38.2 µM (inactive)
